Experimental data reported in patent US4735961A, “Oxazoles and thiazoles containing an aminohydroxypropoxyphenyl moiety” (Merck & Co., Inc., priority 1985, dated 1988).

Each molecule was assayed on β2 : β1 receptors (assay: cardioselectivity, β2:β1 ratio (pulmonary versus cardiac effect, guinea pig trachea versus atria)). Conditions: ratio of pulmonary (β2) to cardiac (β1) effect; over 1 = cardioselective.
Assay type: cell-based
From the text: Expressed in different terms, a smaller amount of a compound of the invention is required to block isoproterenol-induced elevation in heart rate than is required to block the isoproterenol-induced relaxation of the bronchi. This cardioselectivity factor can be expressed as the ratio of ED50 for pulmonary effect (β2):ED50 for cardiac effect (β1). Where the β2 :β1 ratio is over 1, then the compound would be considered to have cardioselective activity.

SMILES | β2 :β1
COc1ccc(CCNCC(O)COc2ccc(-c3ncco3)cc2)cc1OC (stereo not drawn) [Example 1, 2-p-[3-(3,4-Dimethoxyphenethylamino)-2-hydroxypropoxy]phenyl oxazole] | 19
COc1ccc(CCNC[C@H](O)COc2ccc(-c3nccs3)cc2)cc1OC [Example 2, (S) 2-p-[3-(3,4-Dimethoxyphenylethyl)amino-2-hydroxypropoxy]phenyl thiazole] | 813
OC(CNC1CC1)COc1ccc(-c2nccs2)cc1 (stereo not drawn) [Example 3, 2-[p-(3-Cyclopropylamino-2-hydroxypropoxy)phenyl]thiazole] | 85
